In ChEMBL document CHEMBL3085716, “Hytramycins V and I, anti-Mycobacterium tuberculosis hexapeptides from a Streptomyces hygroscopicus strain” (J Nat Prod, 2013):
In brackets after ≈: the same amount, converted by molar mass.

Experiments:
Acinetobacter baumannii [1] = assay: Antibacterial activity against Acinetobacter baumannii ATCC BAA-747 after 16 hrs; type: functional; settings: for MIC90: ATCC BAA-747, 16 h
Pseudomonas aeruginosa [2] = assay: Antibacterial activity against Pseudomonas aeruginosa ATCC 27853 after 16 hrs; type: functional; settings: for MIC90: ATCC 27853, 16 h
Staphylococcus aureus = assay: Antibacterial activity against Staphylococcus aureus ATCC 29213 after 16 hrs; type: functional; settings: for MIC90: ATCC 29213, 16 h
Escherichia coli [3] = assay: Antibacterial activity against Escherichia coli ATCC 25922 after 16 hrs; type: functional; settings: for MIC90: ATCC 25922, 16 h
[4] = test system: Streptomyces lavendofoliae; assay: Antibacterial activity against Streptomyces lavendofoliae after 16 hrs; type: functional
[5] = test system: Mycobacterium tuberculosis; assay: Ratio of MIC for Mycobacterium tuberculosis H37Rv under normoxic condition in presence of 10% fetal bovine serum to MIC for Mycobacterium tuberculosis H37Rv under normoxic condition in absence of 10% fetal bovine serum by MABA assay; type: functional
[6] = test system: Mycobacterium tuberculosis; assay: Ratio of MIC for Mycobacterium tuberculosis H37Rv under normoxic condition in presence of 4% bovine serum albumin to MIC for Mycobacterium tuberculosis H37Rv under normoxic condition in absence of 4% bovine serum albumin by MABA assay; type: functional
[7] = test system: Mycobacterium tuberculosis; assay: Antimycobacterial activity against Mycobacterium tuberculosis H37Rv under normoxic condition after 7 days by MABA assay in presence of 10% fetal bovine serum; type: functional; settings: 168 h
[8] = test system: Mycobacterium tuberculosis; assay: Antimycobacterial activity against Mycobacterium tuberculosis H37Rv under normoxic condition after 7 days by MABA assay in presence of 4% bovine serum albumin; type: functional; settings: 168 h
Streptococcus pneumoniae = assay: Antibacterial activity against Streptococcus pneumoniae ATCC 49619 after 20 hrs; type: functional; settings: ATCC 49619, 20 h
Pseudomonas aeruginosa [9] = assay: Antibacterial activity against Pseudomonas aeruginosa ATCC 27853 at 10 ug/ml after 16 hrs; type: functional; settings: ATCC 27853, 16 h
Enterococcus faecalis [10] = assay: Antibacterial activity against Enterococcus faecalis ATCC 29212 after 16 hrs; type: functional; settings: ATCC 29212, 16 h
Candida albicans [11] = assay: Antifungal activity against Candida albicans ATCC 10231 at 10 ug/ml after 48 hrs; type: functional; settings: ATCC 10231, 48 h
Candida albicans [12] = assay: Antifungal activity against Candida albicans ATCC 10231 after 48 hrs; type: functional; settings: ATCC 10231, 48 h
Escherichia coli [13] = assay: Antibacterial activity against Escherichia coli ATCC 25922 at 10 ug/ml after 16 hrs; type: functional; settings: ATCC 25922, 16 h
Acinetobacter baumannii [14] = assay: Antibacterial activity against Acinetobacter baumannii ATCC BAA-747 at 10 ug/ml after 16 hrs; type: functional; settings: ATCC BAA-747, 16 h
[15] = test system: Mycolicibacterium smegmatis; assay: Antimycobacterial activity against Mycobacterium smegmatis ATCC 700084 under normoxic condition after 72 hrs by MABA assay; type: functional; settings: ATCC 700084, 72 h
[16] = test system: Mycobacterium tuberculosis; assay: Antimycobacterial activity against Mycobacterium tuberculosis clinical isolate X005319 under normoxic condition after 7 days by MABA assay; type: functional; settings: clinical isolate X005319, 168 h
[17] = test system: Mycobacterium tuberculosis; assay: Antimycobacterial activity against Mycobacterium tuberculosis clinical isolate X005282 under normoxic condition after 7 days by MABA assay; type: functional; settings: clinical isolate X005282, 168 h
[18] = test system: Mycobacterium tuberculosis; assay: Antimycobacterial activity against Mycobacterium tuberculosis clinical isolate X004439 under normoxic condition after 7 days by MABA assay; type: functional; settings: clinical isolate X004439, 168 h
[19] = test system: Mycobacterium tuberculosis; assay: Antimycobacterial activity against Mycobacterium tuberculosis clinical isolate X004244 under normoxic condition after 7 days by MABA assay; type: functional; settings: clinical isolate X004244, 168 h
[20] = test system: Mycobacterium tuberculosis; assay: Antimycobacterial activity against Mycobacterium tuberculosis clinical isolate X003899 under normoxic condition after 7 days by MABA assay; type: functional; settings: clinical isolate X003899, 168 h
[21] = test system: Mycobacterium tuberculosis; assay: Antimycobacterial activity against Mycobacterium tuberculosis clinical isolate X001354 under normoxic condition after 7 days by MABA assay; type: functional; settings: clinical isolate X001354, 168 h
Vero = assay: Cytotoxicity against african green monkey Vero cells; type: cell-based; settings: Chlorocebus sabaeus
[22] = test system: Mycobacterium tuberculosis; assay: Antimycobacterial activity against Mycobacterium tuberculosis H37Rv under normoxic condition after 7 days by MABA assay; type: functional; settings: for MIC90: Mycobacterium tuberculosis, H37Rv, 168 h
Enterococcus faecalis [23] = assay: Antibacterial activity against Enterococcus faecalis ATCC 29212 at 10 ug/ml after 16 hrs; type: functional; settings: ATCC 29212, 16 h

Compound: CN(C)c1ccc(O)c2c1C[C@H]1C[C@H]3[C@H](N(C)C)C(O)=C(C(N)=O)C(=O)[C@@]3(O)C(O)=C1C2=O [MINOCYCLINE]
- MIC90 (Acinetobacter baumannii [1]): 0.2 µg/mL (≈ 0.437 µM)

Compound: GENTAMICIN
- MIC>90 (Pseudomonas aeruginosa [2]): 0.5 µg/mL
- MIC>90 (Staphylococcus aureus): 0.6 µg/mL
- MIC>90 (Escherichia coli [3]): 1.2 µg/mL
- MIC>90 (Acinetobacter baumannii [1]): 0.2 µg/mL

Compound: C=C1NC(CC(C)C)C(=O)N[C@H](C(C)C)C(=O)N2NCCCC2C(=O)CC(CC(C)C)C(=O)N2NCCCC2C(=O)OC(C)[C@H]1NC(=O)[C@@H](NC=O)[C@@H](C)CC (some centres not stated)
- MIC [4]: 3.12 µg/mL (≈ 3.95 µM)

Compound: CC[C@H](C)[C@H]1NC(=O)[C@H](CC(C)C)NC(=O)[C@H]2CCCNN2C(=O)[C@H](C)N(C)C(=O)[C@H]2CCCNN2C(=O)[C@@H]2CCCNN2C1=O
- Ratio [5]: 2
- Ratio [6]: 2
- MIC90 [7]: 9.4 µg/mL
- MIC90 [8]: 11.9 µg/mL
- MIC90 (Streptococcus pneumoniae): 2.4 µg/mL (≈ 3.7 µM)
- inhibition at 10 µg/mL (Pseudomonas aeruginosa [9]): 10%
- MIC90 (Pseudomonas aeruginosa [2]): > 10 µg/mL
- MIC90 (Enterococcus faecalis [10]): 3.5 µg/mL (≈ 5.4 µM)
- inhibition at 10 µg/mL (Candida albicans [11]): 0%
- MIC90 (Candida albicans [12]): > 10 µg/mL
- MIC90 (Staphylococcus aureus): 4.5 µg/mL (≈ 6.95 µM)
- inhibition at 10 µg/mL (Escherichia coli [13]): 2%
- MIC90 (Escherichia coli [3]): > 10 µg/mL
- inhibition at 10 µg/mL (Acinetobacter baumannii [14]): 77%
- MIC90 (Acinetobacter baumannii [1]): > 10 µg/mL
- MIC90 [15]: > 10 µg/mL
- MIC90 [16]: 4.8 µg/mL (≈ 7.41 µM)
- MIC90 [17]: 4.7 µg/mL (≈ 7.26 µM)
- MIC90 [18]: 4.4 µg/mL (≈ 6.79 µM)
- MIC90 [19]: 4.7 µg/mL (≈ 7.26 µM)
- MIC90 [20]: 4.8 µg/mL (≈ 7.41 µM)
- MIC90 [21]: 4.7 µg/mL (≈ 7.26 µM)
- IC50 (Vero): 7.7 µg/mL (≈ 11.9 µM)
- MBC90 [22]: 44.2 µg/mL (≈ 68.2 µM)
- MIC90 [22]: 6 µg/mL (≈ 9.26 µM)

Compound: CC(=O)N1CCN(c2ccc(OCC3COC(Cn4ccnc4)(c4ccc(Cl)cc4Cl)O3)cc2)CC1 (configuration not stated) [KETOCONAZOLE]
- MIC90 (Candida albicans [12]): < 0.004 µg/mL

Compound: CC1(C)S[C@@H]2[C@H](NC(=O)[C@H](N)c3ccccc3)C(=O)N2[C@H]1C(=O)O [AMPICILLIN]
- inhibition at 10 µg/mL (Enterococcus faecalis [23]): 66%
- MIC90 (Enterococcus faecalis [10]): > 10 µg/mL
- MIC90 (Staphylococcus aureus): 1.2 µg/mL (≈ 3.43 µM)
- MIC90 (Escherichia coli [3]): 8.9 µg/mL (≈ 25.5 µM)

Compound: C[C@H]1c2cccc(O)c2C(=O)C2=C(O)[C@]3(O)C(=O)C(C(N)=O)=C(O)[C@@H](N(C)C)[C@@H]3[C@@H](O)[C@@H]21.O [DOXYCYCLINE]
- MIC90 (Acinetobacter baumannii [1]): 0.1 µg/mL

Compound: NC[C@H]1O[C@H](O[C@H]2[C@H](O)[C@@H](O[C@H]3O[C@H](CO)[C@@H](O)[C@H](N)[C@H]3O)[C@H](N)C[C@@H]2N)[C@H](O)[C@@H](O)[C@@H]1O [KANAMYCIN]
- MIC90 (Acinetobacter baumannii [1]): 0.7 µg/mL (≈ 1.44 µM)

Compound: CC[C@H]1OC(=O)[C@H](C)[C@@H](O[C@H]2C[C@@](C)(OC)[C@@H](O)[C@H](C)O2)[C@H](C)[C@@H](O[C@@H]2O[C@H](C)C[C@H](N(C)C)[C@H]2O)[C@](C)(O)C[C@@H](C)C(=O)[C@H](C)[C@@H](O)[C@]1(C)O [ERYTHROMYCIN]
- MIC90 (Streptococcus pneumoniae): 0.1 µg/mL (≈ 0.136 µM)
- MIC90 (Enterococcus faecalis [10]): 1.9 µg/mL (≈ 2.59 µM)

Compound: CN[C@@H]1[C@H](O[C@H]2[C@H](O[C@H]3[C@H](O)[C@@H](O)[C@H](N=C(N)N)[C@@H](O)[C@@H]3N=C(N)N)O[C@@H](C)[C@]2(O)C=O)O[C@@H](CO)[C@H](O)[C@H]1O [STREPTOMYCIN]
- MIC90 [7]: 0.6 µg/mL
- MIC90 [8]: 0.8 µg/mL
- MIC90 [15]: 0.1 µg/mL (≈ 0.172 µM)
- MIC90 [16]: 1 µg/mL (≈ 1.72 µM)
- MIC90 [17]: 0.6 µg/mL (≈ 1.03 µM)
- MIC90 [18]: 0.3 µg/mL (≈ 0.516 µM)
- MIC90 [19]: 0.3 µg/mL (≈ 0.516 µM)
- MIC90 [20]: 0.2 µg/mL (≈ 0.344 µM)
- MIC90 [21]: 0.4 µg/mL (≈ 0.688 µM)
- MIC90 [22]: 0.3 µg/mL (≈ 0.516 µM)

Compound: O=C(O)c1cn(C2CC2)c2cc(N3CCNCC3)c(F)cc2c1=O [CIPROFLOXACIN]
- MIC90 (Pseudomonas aeruginosa [2]): 0.2 µg/mL (≈ 0.604 µM)
- MIC90 (Enterococcus faecalis [10]): 4.9 µg/mL (≈ 14.8 µM)
